This data set is described as follows: Plasma stability (37° C., pH 7.4), rat. To be noted: for half-life at 1 μM: male, Sprague-Dawley, rat, plasma; for % Remaining of Initial (n = 1), 0 min / % Remaining of Initial (n = 1), 15 min / % Remaining of Initial (n = 1), 30 min / % Remaining of Initial (n = 1), 60 min / % Remaining of Initial (n = 1), 120 min / % Remaining of Initial: rat plasma; for % Remaining of Initial (n = 1), 0 min: pH 7.4, 0 min; for % Remaining of Initial (n = 1), 15 min: pH 7.4, 15 min; for % Remaining of Initial (n = 1), 30 min: pH 7.4, 30 min; for % Remaining of Initial (n = 1), 60 min: pH 7.4, 60 min; for % Remaining of Initial (n = 1), 120 min: pH 7.4, 120 min; for % Remaining of Initial: n = 1; for % Remaining of Initial (n = 1): Rat plasma. The data set is classed as in vitro ADME, Sprague-Dawley rat. Here is the method:
(§1) Studies were carried out in mixed-gender human plasma (Lot #GLP530-5), male Sprague-Dawley rat (Lot #RAT297944, RAT313140), male CD-1 mouse (Lot #MSE237700), and male Beagle dog (Lot #BGL87670, BGL82614), collected on sodium heparin. Plasma was adjusted to pH 7.4 prior to initiating the experiments. DMSO stocks were first prepared for the test articles. Aliquots of the DMSO solutions were dosed into 700 μL of plasma, which had been pre-warmed to 37° C., at a final test article concentration of 1 μM. […] Samples were stored at 4° C. until the end of the experiment. After the final time point was sampled, the plate was mixed and then centrifuged at 3,000 rpm for 10 minutes. Calibration standards were prepared in matched matrix. […] Analytical conditions are outlined in Appendix 8-1.
as §1, with “#AS1650-2),” for “#GLP530-5),”, “#RAT297944),” for “#RAT297944, RAT313140),”, “CD-I” for “CD-1”, “#BGL91384),” for “#BGL87670, BGL82614),”, “10-1.” for “8-1.”
Studies were carried out in mixed-gender human plasma (Lot #AS1650-2), male Sprague-Dawley rat (Lot #RAT297944), male CD-1 mouse (Lot #MSE237700), and male Beagle dog (Lot #BGL91384), collected on sodium heparin. Plasma was adjusted to pH 7.4 prior to initiating the experiments. DMSO stocks were first prepared for test articles. […] Samples were stored at 4° C. until the end of experiment. After the final time point was sampled, the plate was mixed and then centrifuged at 3,000 rpm for 10 minutes. Calibration standards were prepared in matched matrix. […] Analytical conditions are outlined in Appendix 13-1.
Studies were carried out in mixed-gender human plasma (Lot #AS 1650-2), male Sprague-Dawley rat (Lot #RAT320835), male CD-1 mouse (Lot #MSE260693), and 6 male Beagle dog (Lot #BGL91384), on sodium heparin. Plasma was adjusted to pH 7.4 prior to initiating the experiments. DMSO stocks were first prepared for the test articles. Aliquots of the DMSO solutions were dosed into 700 μL of plasma, which had been pre-warmed to 37° C., at a final test article concentration of 1 μM. […] Samples were stored at 4° C. until the end of the experiment. After the final time point was sampled, the plate was mixed and then centrifuged at 3,000 rpm for 10 minutes. Calibration standards were prepared in matched matrix. […] Analytical conditions are outlined in Appendix 17-1.

[1] abbreviates: pH 7.4, rat plasma, test article 1 μM, 37° C., pH 7.4, read-out: Half-life.
The mark [2] stands for this setting: pH 7.4, rat plasma, read-out: Half-life.

Like-named read-outs stand apart in the source and are kept apart here.

Consider `CCCCCCCCCCCCCCCC(=O)NCCOC(=O)CCC` [Compound I-2], for which the half-life at 1 μM under setting [1] is 49 min. Also, under “test article 1 μM, 37° C.”, the “% Remaining of Initial (n = 1), 0 min” value amounted to 100%; the “% Remaining of Initial (n = 1), 15 min” value came to 58%; the “% Remaining of Initial (n = 1), 30 min” value is on record as 59%; the “% Remaining of Initial (n = 1), 60 min” value turned out to be 46%. Moreover, the “% Remaining of Initial (n = 1), 120 min” value (test article 1 μM, 37° C.) amounted to 18%.
In the case of `CCCCCCCCCCCCCCCC(=O)NCCOC(=O)CCC(=O)OCC(COC(=O)CCCCCCC)OC(=O)CCCCCCC` (stereo not shown) [Compound I-3, PEA-Succinate-Glycerol-Di-Caprylic], under setting [1], the half-life at 1 μM is over 120 min. Under “test article 1 μM, 37° C.”, the “% Remaining of Initial (n = 1), 0 min” value was 100%; the “% Remaining of Initial (n = 1), 15 min” value was found to be 94%; the “% Remaining of Initial (n = 1), 30 min” value is on record as 79%; the “% Remaining of Initial (n = 1), 60 min” value came to 76%. The “% Remaining of Initial (n = 1), 120 min” value (test article 1 μM, 37° C.) came to 79%.
`CC/C=C\C/C=C\C/C=C\C/C=C\C/C=C\CCCC(=O)OCCNC(=O)CCCCCCCCCCCCCCC` [Compound I-5]: the half-life at 1 μM under setting [1] is over 120 min. Under “test article 1 μM, 37° C.”, the “% Remaining of Initial (n = 1), 0 min” value was 100%; the “% Remaining of Initial (n = 1), 15 min” value was found to be 85%; the “% Remaining of Initial (n = 1), 30 min” value came out at 90%; the “% Remaining of Initial (n = 1), 60 min” value worked out at 87%. Further, the “% Remaining of Initial (n = 1), 120 min” value (test article 1 μM, 37° C.) is reported as 83%.
`CCCCC/C=C\C/C=C\CCCCCCCC(=O)OCCNC(=O)CCCCCCCCCCCCCCC` [Compound I-6]: the half-life at 1 μM under setting [1] is 110 min. Further, under “test article 1 μM, 37° C.”, the “% Remaining of Initial (n = 1), 0 min” value came out at 100%; the “% Remaining of Initial (n = 1), 15 min” value amounted to 93%; the “% Remaining of Initial (n = 1), 30 min” value worked out at 119%; the “% Remaining of Initial (n = 1), 60 min” value was found to be 100%. In addition, the “% Remaining of Initial (n = 1), 120 min” value (test article 1 μM, 37° C.) stood at 29%.
Regarding `CCCCCCCCCCCCCCCC(=O)NCCOC(=O)CCC(=O)OC[C@H]1O[C@@](CO)(O[C@H]2O[C@H](CO)[C@@H](O)[C@H](O)[C@H]2O)[C@@H](O)[C@@H]1O` [Compound I-7], the half-life at 1 μM under setting [1] is under 1 min. Further, where the note is “test article 1 μM, 37° C.”, the “% Remaining of Initial (n = 1), 0 min” value is given as 100%; the “% Remaining of Initial (n = 1), 15 min” value is listed as under 1.0%; the “% Remaining of Initial (n = 1), 30 min” value is recorded as under 1.0%; the “% Remaining of Initial (n = 1), 60 min” value is listed as under 1.0%. Besides, the “% Remaining of Initial (n = 1), 120 min” value (test article 1 μM, 37° C.) is listed as under 1.0%.
Take `CCCCCCCCCCCCCCCC(=O)NCCOC(=O)CCC(=O)OC(CO)CO` [Compound I-8]: under setting [2], the half-life at 1 μM was under 1 min. Also, the “% Remaining of Initial” value reads like this: (0 min, 1 μM) 100%; (15 min, 1 μM) under 1.0%; (30 min, 1 μM) under 1.0%; (60 min, 1 μM) under 1.0%; (120 min, 1 μM) under 1.0%.
For `CCCCCCCCCCCCCCCC(=O)NCCOC(=O)CCC(=O)OCC(O)CO` (stereo not shown) [Compound I-9], under setting [1], the half-life at 1 μM was 2.8 min. Also, where the note is “test article 1 μM, 37° C.”, the “% Remaining of Initial (n = 1), 0 min” value was determined as 100%; the “% Remaining of Initial (n = 1), 15 min” value was determined as 2.5%; the “% Remaining of Initial (n = 1), 30 min” value was under 1.0%; the “% Remaining of Initial (n = 1), 60 min” value is listed as under 1.0%. In addition, the “% Remaining of Initial (n = 1), 120 min” value (test article 1 μM, 37° C.) is listed as under 1.0%.
In the case of `CCCCCCCCCCCCCCCC(=O)NCCOC(=O)CCC(=O)OCC(COC(=O)CCC)OC(=O)CCC` (stereo not shown) [Compound I-11], the half-life at 1 μM under setting [1] amounted to 5.6 min. For the same compound, under “test article 1 μM, 37° C.”, the “% Remaining of Initial (n = 1), 0 min” value stood at 100%; the “% Remaining of Initial (n = 1), 15 min” value was found to be 9.0%; the “% Remaining of Initial (n = 1), 30 min” value was found to be 23%; the “% Remaining of Initial (n = 1), 60 min” value is on record as under 1.0%. Also, where the note is “test article 1 μM, 37° C.”, the “% Remaining of Initial (n = 1), 120 min” value was under 1.0%.
`CCCCC/C=C\C/C=C\CCCCCCCC(=O)OCC(COC(=O)CCC(=O)OCCNC(=O)CCCCCCCCCCCCCCC)OC(=O)CCCCCCC/C=C\C/C=C\CCCCC` (stereo not shown) [Compound I-13]: the “% Remaining of Initial (n = 1)” value by setting is: (0 min, 1 μM) 100%; (15 min, 1 μM) 69%; (30 min, 1 μM) 76%; (60 min, 1 μM) 36%; (120 min, 1 μM) 5.1%. Moreover, the half-life at 1 μM (pH 7.4, Rat plasma, 1 μM, read-out: Half-life) was 42 min.
`CCCCCCCCCCCCCCCC(=O)NCCOC(=O)CCC(=O)OC(COC(=O)CCC)COC(=O)CCC` [Compound I-16]: the half-life at 1 μM is, setting by setting: under setting [2], under 15 min; (pH 7.4, rat plasma, read-out: Half-life, calculated value in parentheses) 6.9 min. Besides, the “% Remaining of Initial” value was determined as 100% (0 min, 1 μM); 20% (15 min, 1 μM); 9.3% (30 min, 1 μM); 4.1% (60 min, 1 μM); 1.6% (120 min, 1 μM).

The values are drawn from patent publication US11547681B2, “N-acylethanolamide derivatives and uses thereof” (ELIEM THERAPEUTICS, INC., priority 2016, dated 2023).
